Data set [1] can be described thus: Pharmacokinetic study of fixed-dose combinations of Formula I/Formula II/Formula III/Formula IV. Type of data set: in vivo. The following applies: mean (CV %); for Cmax / AUC: in vivo. On the procedure: A pharmacokinetic study involving two fixed-dose combinations of the compounds of Formula I/Formula II/Formula III/Formula IV was also conducted. Doses for the fixed-dose combination of the compounds of Formula I/Formula II/Formula III/Formula IV were 150 mg/100 mg/200 mg/300 mg (Dose A) and 150 mg/150 mg/200 mg/300 mg (Dose B) respectively. Pharmacokinetic data for the compound of Formula II from the study involving the two fixed dose combinations (Dose A and Dose B) is provided in the following table.

A short description of data set [2]: Pharmacokinetic dose-ranging study of the compound of Formula II. Type of data set: in vivo. The following applies: 100 mg dose. On the procedure: A pharmacokinetic dose-ranging study involving the compound of Formula II was conducted. Doses for the compound of Formula II for the dose-ranging study included 50 mg, 100 mg and 200 mg.
A short description of data set [3]: Chemical stability of Formula IV in tablet combinations. The data set is classed as physicochemical. An excerpt:
Additionally, improper combinations of the compounds of Formula I, II, III, or IV in a bilayer tablet will also compromise the chemical stability of Formula IV. For example, Formula IV in the presence of silicon dioxide from the Formula II formulation will decompose Formula IV; and Formula IV in the in the presence of sodium lauryl sulphate from the Formula I formulation will decompose Formula IV.

The mark [4] stands for this setting: Dose A: 150 mg/100 mg/200 mg/300 mg, n = 43.
Where [5] appears, read: Dose B: 150 mg/150 mg/200 mg/300 mg, n = 42.
Where [6] appears, read: in vivo, n = 11, arithmetic mean.

In the case of `CC(C)c1nc(CN(C)C(=O)N[C@@H](CCN2CCOCC2)C(=O)N[C@H](CC[C@H](Cc2ccccc2)NC(=O)OCc2cncs2)Cc2ccccc2)cs1` [Formula II], the Ctau is given as 10.8 (83.6) ng/mL in data set [1] (setting [4]) and 23.3 (103) ng/mL in data set [1] (setting [5]). The Cmax in data set [1] (setting [4]) came to 855 ng/mL; in data set [1] (setting [5]), 1570 ng/mL; in data set [2] (setting [6]), 563 ng/mL. The AUC is 5150 ng·h/mL in data set [1] (Dose A: Formula I/II/III/IV 150 mg/100 mg/200 mg/300 mg, n = 43); 10400 ng·h/mL in data set [1] (Dose B: Formula I/II/III/IV 150 mg/150 mg/200 mg/300 mg, n = 42); 3440 ng·h/mL in data set [2] (setting [6]). The CL/F in data set [2] (n = 11, arithmetic mean) is 33.2 L/h. In data set [2] (n = 11, median), this compound returned a T1/2 of 3.12 h.

In the case of `CC(C)OC(=O)OCOP(=O)(CO[C@H](C)Cn1cnc2c(N)ncnc21)OCOC(=O)OC(C)C.O=C(O)/C=C/C(=O)O` [Formula IV, tenofovir disoproxil fumarate], the “chemical stability of Formula IV” value is “compromises the chemical stability” in data set [3] (Formula I, II, III and IV combined in a mixture as mono layer tablet); “decompose” in data set [3] (in the presence of silicon dioxide from the Formula II formulation); “decompose” in data set [3] (in the presence of sodium lauryl sulphate from the Formula I formulation).

(Values after patent publication US20150150810A1, “TABLETS FOR COMBINATION THERAPY” (Gilead Sciences, Inc., priority 2009, published 2015).)
